According to patent publication US20060008574A1, “Galactosyl isomalt, method for production and use thereof” (priority 2002, published 2006):

Tests used:
Assay in all cases: Fermentation by human bifidobacteria
Type in all cases: cell-based
Set-up in all cases: key: −: no decomposition; +: decomposition and metabolization of galactose from β-1,3-galactosyl isomalt; ++: decomposition and metabolization of galactose and glucose from β-1,3-galactosyl isomalt; +++: complete decomposition of β-1,3-galcatosyl isomalt
Settings in all cases: medium 2, 48 h
[1] = system: B. adolescentis DSM 20083
Protocol: (§1) To investigate the prebiotic and bifidogenic properties of galactosyl isomalt, the growth of various human bifidobacteria was investigated on this substrate in vitro. An anaerobic medium of the following composition was used:
(§2) 22 strains of human bifidobacteria were first precultured in “Hungate” test tubes on the above medium 1, in which the source of carbohydrate had first been replaced by glucose (10 g/L). The strains were then inoculated onto medium 2, incubated for 48 h, and then the optical density (E578), the pH, the formation of acetate and lactate and the decrease of the β-1,3-galactosyl isomalt concentration were determined.
(§3) Various decomposition paths are distinguished with regard to the metabolization of galactosyl isomalt. Some strains degrade galactose from the substrate with a β-galactosidase and metabolize this monosaccharide (+).
(§4) Other strains additionally degrade glucose from the resulting isomalt, in addition to galactose, metabolize both monosaccharides, while this is not true for the resulting mannitol or sorbitol (++). The third group is capable of utilizing galactosyl isomalt as a substrate and also metabolizing mannitol and sorbitol (+++).

[2] = system: B. adolescentis DSM 20086
Protocol: as §1, §2, §3, §4

[3] = system: B. adolescentis DSM 20087
Protocol: as §1, §2, §3, §4

B. angulatum DSM 20098 = system: B. angulatum DSM 20098
Protocol: as §1, §2, §3, §4

B. angulatum DSM 20225 = system: B. angulatum DSM 20225
Protocol: as §1, §2, §3, §4

B. bifidum DSM 20082 = system: B. bifidum DSM 20082
Protocol: as §1, §2, §3, §4

B. bifidum DSM 20215 = system: B. bifidum DSM 20215
Protocol: as §1, §2, §3, §4

B. bifidum DSM 20239 = system: B. bifidum DSM 20239
Protocol: as §1, §2, §3, §4

B. bifidum DSM 20456 = system: B. bifidum DSM 20456
Protocol: as §1, §2, §3, §4

B. breve DSM 20091 = system: B. breve DSM 20091
Protocol: as §1, §2, §3, §4

B. gallicum DSM 20093 = system: B. gallicum DSM 20093
Protocol: as §1, §2, §3, §4

B. infantis DSM 20090 = system: B. infantis DSM 20090
Protocol: as §1, §2, §3, §4

B. infantis DSM 20223 = system: B. infantis DSM 20223
Protocol: as §1, §2, §3, §4

OCC1O[C@H](OC[C@@H](O)[C@@H](O)[C@H](O)C(O)CO)C(O)C(O[C@@H]2OC(CO)[C@H](O)C(O)C2O)[C@@H]1O (mixture of isomers) [β-1,3-Galactosyl isomalt, β-D-galactosyl-(1→3)-α-D-glucosyl-(1→6)-D-sorbitol(β-1,3-galactosyl-1,6-GPS) and β-D-galactosyl-(1→3)-α-D-glucosyl-(1→1)-D-mannitol(β-1,3-galactosyl-1,1-GPM)]
Growth on β-1,3-galactosyl isomalt [1]: +++ | Growth on β-1,3-galactosyl isomalt [2]: +++ | Growth on β-1,3-galactosyl isomalt [3]: +++ | Growth on β-1,3-galactosyl isomalt (B. angulatum DSM 20098): ++ | Growth on β-1,3-galactosyl isomalt (B. angulatum DSM 20225): ++ | Growth on β-1,3-galactosyl isomalt (B. bifidum DSM 20082): + | Growth on β-1,3-galactosyl isomalt (B. bifidum DSM 20215): + | Growth on β-1,3-galactosyl isomalt (B. bifidum DSM 20239): + | Growth on β-1,3-galactosyl isomalt (B. bifidum DSM 20456): − | Growth on β-1,3-galactosyl isomalt (B. breve DSM 20091): + | Growth on β-1,3-galactosyl isomalt (B. gallicum DSM 20093): − | Growth on β-1,3-galactosyl isomalt (B. infantis DSM 20090): ++ | Growth on β-1,3-galactosyl isomalt (B. infantis DSM 20223): +++
